From US5840732A, “Imidazopyridine or imidazopyrimidine compounds, their production and use” (Takeda Chemical Industries Ltd., priority 1994, dated 1998) come the findings set out here.

The test system of experiment [1] is ICAM-1 expression in human umbilical cord vascular endothelial cells. The experiment in a line: Inhibitory activity of adhesion molecule expression (ICAM-1, cell-ELISA). Format: cell-based. As to conditions: TNFα 1 ng/ml, 37° C., 5 hours. The procedure: (§1) Inhibitory activity of adhesion molecule expression
(§2) Test method: To human umbilical cord vascular endothelial cells (purchased from Kurabo), cultured on gelatin-coated plates, compounds at various concentrations (test compounds) were added, followed by incubation at 37° C. for 15 minutes. Human tumor necrosis factor (TNFα, purchased from Genzyme) was then added to a final concentration of 1 ng/ml, followed by incubation at 37° C. for 3 hours for ELAM-1 expression or for 5 hours for ICAM-1 expression. After the reaction, cells were fixed with glutaraldehyde; the amounts of ELAM-1 and ICAM-1 expressed were determined by cell-ELISA. Anti-ELAM-1 antibody BBA-2 and an anti-ICAM-1 antibody BBA-4 were used as the first antibodies for the defection of ELAM-1 and ICAM-1, respectively, and horse radish peroxidase-labeled rabbit anti-mouse IgG antibody was used as the second antibody to determine the amount of adhesion molecules expressed on cells observed. The compound concentration at which 50% expression was expressed as the 50% inhibitory concentration (IC50), with the amount of expression in the absence of compounds as 100 and the amount of expression in the absence of TNFα as 0.
Background: An ELISA detects its analyte on a solid surface through an enzyme-linked reagent.

Experiment [2] deals with ELAM-1 expression in human umbilical cord vascular endothelial cells. The experiment in a line: Inhibitory activity of adhesion molecule expression (ELAM-1, cell-ELISA). Format: cell-based. The settings on record: TNFα 1 ng/ml, 37° C., 3 hours. On the procedure: as §1, §2
Experiment [3] has as its system Wistar fatty rats (rat model of hereditary obese diabetes mellitus). Put plainly: Diabetic nephritis improving action in Wistar fatty rats. Format: in vivo, rat (male Wistar fatty). The settings on record: 50 mg/kg/day oral, 12 weeks, n=6, mean ± standard deviation; for Urinary Albumin: control 35.69 ± 15.44 (for 2), 24.53 ± 7.19 (for 3); for Urinary Total Protein: control 145.19 ± 34.99 (for 2), 131.53 ± 22.81 (for 3), both p < 0.05 vs control; for Plasma Glucose: control 352.00 ± 36.09 (for 2), 368.83 ± 24.35 (for 3), 3: p < 0.05 vs control. The procedure:
Diabetic nephritis improving action in Wistar fatty rats (rat model of hereditary obese diabetes mellitus)
Test method: Male Wistar fatty rats at 9 weeks of age were divided into two groups according to plasma glucose level, urinary total protein excretion and body weight: a control group and a test compound group (n=6). The test compound, in suspension in 0.5% methyl cellulose (Wako Pure Chemical) at 2 ml/kg, was orally administered by gavage once a day for 12 consecutive weeks. For the control group, only the 0.5% methyl cellulose suspension was orally administered in the same manner as the test compounds. At every 3 weeks, plasma glucose, urinary total protein and albumin excretion were quantitated by the enzyme method, the Lowry method (Journal of Biological Chemistry, Vol. 193, pp. 265-275 (1951)] and the method of Mohamed et al. [Journal of Immunology Methods, Vol. 74, pp. 17-22 (1984)], respectively.

A further experiment relates to mouse skin allograft. The experiment in a line: Immunosuppressive action on mouse skin allograft. As to conditions: 16 days. The format is in vivo, mouse (BIOBR donors, C57BL/10 recipients). The procedure: Immunosuppressive action on mouse skin allograft
Test method: Male BIOBR mice and C57BL/10 mice, both at 6 weeks of age, were used as donors and recipients, respectively, and Grafts were prepared by killing donors by cervical vertebral dislocation, collecting full-thickness skin grafts from tail using a razor and tweezers, and cutting them into about 5 mm square pieces. Each graft was kept standing on gauze soaked with physiological saline, and used as soon as the recipient was prepared. Transplantation beds were prepared as follows. The recipient's back was clipped using clippers and sterilized with Isodine. Under ether anesthesia, back skin was picked up with tweezers, and a full-thickness skin graft was cut out into an about 5 mm square piece using scissors. The graft was transferred to the transplantation bed thus prepared, and fixed firmly using bandage. At 7 days after surgery, the bandage was removed, and the mice were observed every day to determine the day of complete necrosis of the graft as the rejection day. The compound was intraperitoneally administered in suspension in 5% gum arabic for 16 days after surgery.

Turning to `CCCC=C1SC(=O)N(CCCCSc2cccc3nccn23)C1=O` [compound 2], in experiment [1], the IC50 – broadly, the concentration that inhibits the measured activity by half – came out at 3000 nM. For the same molecule, the IC50 in experiment [2] was determined as 2900 nM. Besides, in experiment [3], the “Urinary Albumin” value is recorded as 20.49 ± 6.95 mg/day, the “Urinary Total Protein” value came to 96.64 ± 18.31 mg/day and the “Plasma Glucose” value came to 333.67 ± 46.41 mg/dL.

As to `CCCC=C1SC(=O)N(CCCCCc2cccc3nccn23)C1=O` [compound 3], the IC50 in experiment [1] stood at 4200 nM. In experiment [2], the IC50 amounted to 5000 nM. For the same molecule, in experiment [3], the “Urinary Albumin” value was found to be 22.34 ± 7.24 mg/day, the “Urinary Total Protein” value worked out at 97.61 ± 16.26 mg/day and the “Plasma Glucose” value amounted to 253.17 ± 34.14 mg/dL.

On to `CCCC=C1SC(=O)N(CCCCOc2cccn3ccnc23)C1=O` [compound 22], for which the figures for the half-inhibitory concentration (IC50) in experiment [1] and in experiment [2] were 4600 nM and 2900 nM, respectively. Further, the “Mean Rejection Day” value in the experiment with mouse skin allograft (50 mg/kg/day intraperitoneal, control 13.0) came out at 18.8 days.

In the case of `O=c1c(-c2ccccc2)c2n(c(=O)n1CCCCSc1cccc3nccn13)CCCS2(=O)=O` [compound 24], the results for the IC50 in experiment [1] and in experiment [2] were 1100 nM and 800 nM, respectively. For the same molecule, the “Mean Rejection Day” value in the experiment with mouse skin allograft (10 mg/kg/day intraperitoneal, control 13.5) amounted to 27.0 days.
